Data as given in patent US5866700A, “Solid-phase synthesis of oligoribonucleotides” (Hoechst Aktiengesellschaft, priority 1993, dated 1999).

Test: Stability test: half-life for deprotection in 0.05N HCl/MeOH (Table 1)
Format: physicochemical
Details: 0.05N HCl/MeOH (1:2), 30 mmolar solution, 20° C., pH 2.0; values +/- 10%
Protocol: (§1) To test the stability, the following uridine derivatives were incubated in 0.05N HCl/MeOH (1:2), 30 mmolar solution, 20° C., pH 2.0 (Table 1) or in 80% acetic acid, 30 mmolar solution, 20° C. (Table 2) and the half-life for deprotection was determined: […]

**Q.** For `COc1ccc(COC(C)O[C@@H]2[C@H](O)[C@@H](CO)O[C@H]2n2ccc(=O)[nH]c2=O)cc1` (stereo partly shown), which “t1/2 (half-life for deprotection)” value is on record?
**A.** The value was 1.22 h.

**Q.** With `COc1ccc(COC(C)O[C@@H]2[C@H](O)[C@@H](CO)O[C@H]2n2ccc(=O)[nH]c2=O)cc1OC` (stereo partly shown) as the compound, how does the “t1/2 (half-life for deprotection)” value read?
**A.** Its value is 1.37 h.

**Q.** For `CC(OCCc1ccc([N+](=O)[O-])cc1)O[C@@H]1[C@H](O)[C@@H](CO)O[C@H]1n1ccc(=O)[nH]c1=O` (stereo partly shown), which “t1/2 (half-life for deprotection)” value is on record?
**A.** The value was 3.7 h.

**Q.** With `CC(OCCSc1ccccc1)O[C@@H]1[C@H](O)[C@@H](CO)O[C@H]1n1ccc(=O)[nH]c1=O` (stereo partly shown) as the compound, how does the “t1/2 (half-life for deprotection)” value read?
**A.** Its value is 3.83 h.

**Q.** Which “t1/2 (half-life for deprotection)” value does the source give for `CC(OCCN1C(=O)c2ccccc2C1=O)O[C@@H]1[C@H](O)[C@@H](CO)O[C@H]1n1ccc(=O)[nH]c1=O` (stereo partly shown) here?
**A.** Its value is 14 h.

**Q.** For `CC(OCCc1ccc([N+](=O)[O-])cc1[N+](=O)[O-])O[C@@H]1[C@H](O)[C@@H](CO)O[C@H]1n1ccc(=O)[nH]c1=O` (stereo partly shown), which “t1/2 (half-life for deprotection)” value is on record?
**A.** Its value is “approx. 1200 min”.

**Q.** Which “t1/2 (half-life for deprotection)” value does the source give for `CC(OCc1ccc([N+](=O)[O-])cc1)O[C@@H]1[C@H](O)[C@@H](CO)O[C@H]1n1ccc(=O)[nH]c1=O` (stereo partly shown) here?
**A.** The value was 32.67 h.

**Q.** For `CC(OCc1ccccc1[N+](=O)[O-])O[C@@H]1[C@H](O)[C@@H](CO)O[C@H]1n1ccc(=O)[nH]c1=O` (stereo partly shown), which “t1/2 (half-life for deprotection)” value is on record?
**A.** The value was 37.33 h.

**Q.** For `CC(OCCS(C)(=O)=O)O[C@@H]1[C@H](O)[C@@H](CO)O[C@H]1n1ccc(=O)[nH]c1=O` (stereo partly shown), which “t1/2 (half-life for deprotection)” value is on record?
**A.** Its value is 52 h.

**Q.** Which “t1/2 (half-life for deprotection)” value does the source give for `CC(OCCS(=O)(=O)c1ccccc1)O[C@@H]1[C@H](O)[C@@H](CO)O[C@H]1n1ccc(=O)[nH]c1=O` (stereo partly shown) here?
**A.** Its value is 52 h.

**Q.** For `CC(OCc1ccc([N+](=O)[O-])cc1[N+](=O)[O-])O[C@@H]1[C@H](O)[C@@H](CO)O[C@H]1n1ccc(=O)[nH]c1=O` (stereo partly shown), which “t1/2 (half-life for deprotection)” value is on record?
**A.** The value was “approx. 14000 min”.

**Q.** For `CC(OCCC#N)O[C@@H]1[C@H](O)[C@@H](CO)O[C@H]1n1ccc(=O)[nH]c1=O` (stereo partly shown) [CH2 CH2CN], which “t1/2 (half-life for deprotection)” value is on record?
**A.** Its value is 56.17 h.

**Q.** With `CC(OCCCl)O[C@@H]1[C@H](O)[C@@H](CO)O[C@H]1n1ccc(=O)[nH]c1=O` (stereo partly shown) [CH2CH2Cl] as the compound, how does the “t1/2 (half-life for deprotection)” value read?
**A.** The value was 10.3 h.

**Q.** With `CC(OCC[N+](=O)[O-])O[C@@H]1[C@H](O)[C@@H](CO)O[C@H]1n1ccc(=O)[nH]c1=O` (stereo partly shown) [CH2CH2NO2] as the compound, how does the “t1/2 (half-life for deprotection)” value read?
**A.** Its value is 67.17 h.

**Q.** Which “t1/2 (half-life for deprotection)” value does the source give for `CC(OCc1ccccc1)O[C@@H]1[C@H](O)[C@@H](CO)O[C@H]1n1ccc(=O)[nH]c1=O` (stereo partly shown) [drawing 52] here?
**A.** The value was 2.92 h.

Test: Stability test: half-life for deprotection in 80% acetic acid (Table 2)
Format: physicochemical
Details: 30 mmolar solution, 20° C., Values +/- 5%
Protocol: as §1

**Q.** With `CC(OCc1ccc(O)cc1)O[C@@H]1[C@H](O)[C@@H](CO)O[C@H]1n1ccc(=O)[nH]c1=O` (stereo partly shown) as the compound, how does the “t1/2 (half-life for deprotection)” value read?
**A.** Its value is 0.35 h.

**Q.** With `CC(OCc1ccc(OC(=O)OCCc2ccc([N+](=O)[O-])cc2)cc1)O[C@@H]1[C@H](O)[C@@H](CO)O[C@H]1n1ccc(=O)[nH]c1=O` (stereo partly shown) as the compound, how does the “t1/2 (half-life for deprotection)” value read?
**A.** The value was 1.73 h.

**Q.** With `CC(OCc1ccc(O)c(F)c1)O[C@@H]1[C@H](O)[C@@H](CO)O[C@H]1n1ccc(=O)[nH]c1=O` (stereo partly shown) as the compound, how does the “t1/2 (half-life for deprotection)” value read?
**A.** The value was 0.8 h.

**Q.** Which “t1/2 (half-life for deprotection)” value does the source give for `CC(OCc1ccc(OC(=O)OCCc2ccc([N+](=O)[O-])cc2)c(F)c1)O[C@@H]1[C@H](O)[C@@H](CO)O[C@H]1n1ccc(=O)[nH]c1=O` (stereo partly shown) here?
**A.** The value was 5.08 h.

**Q.** For `CC(OCc1ccc(O)c(Cl)c1)O[C@@H]1[C@H](O)[C@@H](CO)O[C@H]1n1ccc(=O)[nH]c1=O` (stereo partly shown), which “t1/2 (half-life for deprotection)” value is on record?
**A.** The value was 0.917 h.

**Q.** For `CC(OCc1cc(Cl)c(O)cc1Cl)O[C@@H]1[C@H](O)[C@@H](CO)O[C@H]1n1ccc(=O)[nH]c1=O` (stereo partly shown), which “t1/2 (half-life for deprotection)” value is on record?
**A.** Its value is 4.17 h.

**Q.** Which “t1/2 (half-life for deprotection)” value does the source give for `CC(OCc1cc(Cl)c(OC(=O)OCCc2ccc([N+](=O)[O-])cc2)cc1Cl)O[C@@H]1[C@H](O)[C@@H](CO)O[C@H]1n1ccc(=O)[nH]c1=O` (stereo partly shown) here?
**A.** The value was 21.67 h.

**Q.** With `CC(OCc1cc(Cl)c(OC(=O)C(C)(C)C)cc1Cl)O[C@@H]1[C@H](O)[C@@H](CO)O[C@H]1n1ccc(=O)[nH]c1=O` (stereo partly shown) as the compound, how does the “t1/2 (half-life for deprotection)” value read?
**A.** Its value is 22.58 h.

**Q.** For `CC(OCc1c(Cl)cccc1Cl)O[C@@H]1[C@H](O)[C@@H](CO)O[C@H]1n1ccc(=O)[nH]c1=O` (stereo partly shown), which “t1/2 (half-life for deprotection)” value is on record?
**A.** The value was 18.8 h.

**Q.** For `CC(OCc1ccccc1)O[C@@H]1[C@H](O)[C@@H](CO)O[C@H]1n1ccc(=O)[nH]c1=O` (stereo partly shown) [drawing 64], which “t1/2 (half-life for deprotection)” value is on record?
**A.** Its value is 1.1 h.
